In the supplement of paper PMC10307832:

Legend:
Experiment in all cases: relative viability (nuclei count vs DMSO), 5 days (fraction); higher = more cells survive
[1] = compound: CS(=O)(=O)c1ccc(-c2cnc(N)c(C(=O)Nc3ccccc3)n2)cc1 [VE-821] + Cc1cc(Nc2cc(N3CCN(C)CC3)nc(Sc3ccc(NC(=O)C4CC4)cc3)n2)n[nH]1 [Tozasertib] (partner 0.1 µM)
Procedure, shortened: (§1)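 Cells from lung cancer lines were seeded into 1536-well plates and, one day later, dosed by pin tool. Treatments were either a single drug or a fixed dose of an anchor drug with five library-drug doses (not always all listed) in √10 steps. After 5 days, nuclei were stained in a one-step fixation (final 0.05% Triton X-100, 1% formaldehyde, 1 ug/ml Hoechst) and counted on 4× images, and relative viability is the treated-to-vehicle nuclei ratio, as the median of duplicate plates.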

[2] = compound: N#CC[C@H](C1CCCC1)n1cc(-c2ncnc3[nH]ccc23)cn1 [Ruxolitinib] + O=C(c1cc(Cc2n[nH]c(=O)c3ccccc23)ccc1F)N1CCN(C(=O)C2CC2)CC1 [Olaparib] (partner 8 µM)
Procedure, shortened: as §1

[3] = compound: N#CC[C@H](C1CCCC1)n1cc(-c2ncnc3[nH]ccc23)cn1 [Ruxolitinib] + CC(C)C[C@H](NC(=O)[C@H](Cc1ccccc1)NC(=O)c1cnccn1)B(O)O [Bortezomib] (partner 0.002 µM)
Procedure, shortened: as §1

[4] = compound: N#CC[C@H](C1CCCC1)n1cc(-c2ncnc3[nH]ccc23)cn1 [Ruxolitinib] + CS(=O)(=O)N1CCN(Cc2cc3nc(-c4cccc5[nH]ncc45)nc(N4CCOCC4)c3s2)CC1 [Pictilisib] (partner 1 µM)
Procedure, shortened: as §1

ChaGo-K-1
relative viability ([1]; first compound 0.08 µM): 0.219
relative viability ([1]; first compound 0.253 µM): 0.248
relative viability ([1]; first compound 0.8 µM): 0.219
relative viability ([1]; first compound 2.53 µM): 0.201
relative viability ([1]; first compound 8 µM): 0.22
relative viability ([2]; first compound 0.08 µM): 0.42
relative viability ([2]; first compound 0.253 µM): 0.445
relative viability ([2]; first compound 0.8 µM): 0.379
relative viability ([2]; first compound 2.53 µM): 0.347
relative viability ([2]; first compound 8 µM): 0.319
relative viability ([3]; first compound 0.253 µM): 0.929
relative viability ([3]; first compound 0.8 µM): 0.94
relative viability ([3]; first compound 2.53 µM): 0.976
relative viability ([3]; first compound 8 µM): 0.701
relative viability ([4]; first compound 0.253 µM): 0.555
relative viability ([4]; first compound 0.8 µM): 0.668
relative viability ([4]; first compound 2.53 µM): 0.776
relative viability ([4]; first compound 8 µM): 0.727

HCC-44
relative viability ([1]; first compound 0.08 µM): 1.08
relative viability ([1]; first compound 0.253 µM): 0.865
relative viability ([1]; first compound 0.8 µM): 0.841
relative viability ([1]; first compound 2.53 µM): 0.907
relative viability ([1]; first compound 8 µM): 0.708
relative viability ([2]; first compound 0.08 µM): 0.958
relative viability ([2]; first compound 0.253 µM): 0.889
relative viability ([2]; first compound 0.8 µM): 0.978
relative viability ([2]; first compound 2.53 µM): 0.922
relative viability ([2]; first compound 8 µM): 0.995
relative viability ([3]; first compound 0.08 µM): 0.888
relative viability ([3]; first compound 0.253 µM): 0.944
relative viability ([3]; first compound 0.8 µM): 0.914
relative viability ([3]; first compound 2.53 µM): 0.933
relative viability ([3]; first compound 8 µM): 0.689
relative viability ([4]; first compound 0.08 µM): 0.594
relative viability ([4]; first compound 0.253 µM): 0.649
relative viability ([4]; first compound 0.8 µM): 0.686
relative viability ([4]; first compound 2.53 µM): 0.463
relative viability ([4]; first compound 8 µM): 0.307

NCI-H441
relative viability ([1]; first compound 0.08 µM): 0.78
relative viability ([1]; first compound 0.253 µM): 0.399
relative viability ([1]; first compound 0.8 µM): 0.666
relative viability ([1]; first compound 2.53 µM): 0.564
relative viability ([1]; first compound 8 µM): 0.511
relative viability ([2]; first compound 0.08 µM): 0.508
relative viability ([2]; first compound 0.253 µM): 0.54
relative viability ([2]; first compound 0.8 µM): 0.502
relative viability ([2]; first compound 2.53 µM): 0.472
relative viability ([2]; first compound 8 µM): 0.484
relative viability ([3]; first compound 0.08 µM): 0.545
relative viability ([3]; first compound 0.253 µM): 0.448
relative viability ([3]; first compound 0.8 µM): 0.557
relative viability ([3]; first compound 2.53 µM): 0.456
relative viability ([3]; first compound 8 µM): 0.397
relative viability ([4]; first compound 0.08 µM): 0.44
relative viability ([4]; first compound 0.253 µM): 0.497
relative viability ([4]; first compound 0.8 µM): 0.533
relative viability ([4]; first compound 2.53 µM): 0.445
relative viability ([4]; first compound 8 µM): 0.39

NCI-H1299
relative viability ([2]; first compound 0.08 µM): 0.939
relative viability ([2]; first compound 0.253 µM): 0.998
relative viability ([2]; first compound 0.8 µM): 0.963
relative viability ([2]; first compound 2.53 µM): 0.985
relative viability ([2]; first compound 8 µM): 0.757
relative viability ([3]; first compound 0.08 µM): 1
relative viability ([3]; first compound 0.253 µM): 0.997
relative viability ([3]; first compound 0.8 µM): 1.02
relative viability ([3]; first compound 2.53 µM): 0.932
relative viability ([3]; first compound 8 µM): 0.984
relative viability ([4]; first compound 0.08 µM): 0.773
relative viability ([4]; first compound 0.253 µM): 0.761
relative viability ([4]; first compound 0.8 µM): 0.883
relative viability ([4]; first compound 2.53 µM): 0.716
relative viability ([4]; first compound 8 µM): 0.504

LU99A
relative viability ([1]; first compound 0.08 µM): 0.264
relative viability ([1]; first compound 0.253 µM): 0.299
relative viability ([1]; first compound 0.8 µM): 0.277
relative viability ([1]; first compound 2.53 µM): 0.24
relative viability ([1]; first compound 8 µM): 0.227
relative viability ([2]; first compound 0.08 µM): 0.272
relative viability ([2]; first compound 0.253 µM): 0.277
relative viability ([2]; first compound 0.8 µM): 0.268
relative viability ([2]; first compound 2.53 µM): 0.237
relative viability ([2]; first compound 8 µM): 0.224
relative viability ([3]; first compound 0.08 µM): 1.27
relative viability ([3]; first compound 0.253 µM): 1.05
relative viability ([3]; first compound 0.8 µM): 1.21
relative viability ([3]; first compound 2.53 µM): 1.15
relative viability ([3]; first compound 8 µM): 0.842
relative viability ([4]; first compound 0.08 µM): 0.321
relative viability ([4]; first compound 0.253 µM): 0.315
relative viability ([4]; first compound 0.8 µM): 0.401
relative viability ([4]; first compound 2.53 µM): 0.339
relative viability ([4]; first compound 8 µM): 0.316

NCI-H520
relative viability ([1]; first compound 0.08 µM): 0.493
relative viability ([1]; first compound 0.253 µM): 0.457
relative viability ([1]; first compound 2.53 µM): 0.435
relative viability ([1]; first compound 8 µM): 0.858
relative viability ([2]; first compound 0.08 µM): 0.298
relative viability ([2]; first compound 0.253 µM): 0.375
relative viability ([2]; first compound 0.8 µM): 0.366
relative viability ([2]; first compound 2.53 µM): 0.343
relative viability ([2]; first compound 8 µM): 0.284
relative viability ([3]; first compound 0.253 µM): 0.323
relative viability ([3]; first compound 0.8 µM): 0.859
relative viability ([3]; first compound 2.53 µM): 0.323
relative viability ([3]; first compound 8 µM): 0.364
relative viability ([4]; first compound 0.253 µM): 0.258
relative viability ([4]; first compound 0.8 µM): 0.236
relative viability ([4]; first compound 2.53 µM): 0.251
relative viability ([4]; first compound 8 µM): 0.34

EPLC-272H
relative viability ([1]; first compound 0.08 µM): 0.363
relative viability ([1]; first compound 0.253 µM): 0.26
relative viability ([1]; first compound 0.8 µM): 0.374
relative viability ([1]; first compound 2.53 µM): 0.211
relative viability ([1]; first compound 8 µM): 0.154
relative viability ([2]; first compound 0.08 µM): 0.829
relative viability ([2]; first compound 0.253 µM): 0.922
relative viability ([2]; first compound 0.8 µM): 0.818
relative viability ([2]; first compound 2.53 µM): 0.544
relative viability ([2]; first compound 8 µM): 0.344
relative viability ([3]; first compound 0.08 µM): 0.846
relative viability ([3]; first compound 0.253 µM): 0.976
relative viability ([3]; first compound 0.8 µM): 0.984
relative viability ([3]; first compound 2.53 µM): 0.937
relative viability ([3]; first compound 8 µM): 0.734
relative viability ([4]; first compound 0.08 µM): 0.141
relative viability ([4]; first compound 0.253 µM): 0.36
relative viability ([4]; first compound 0.8 µM): 0.336
relative viability ([4]; first compound 2.53 µM): 0.281
relative viability ([4]; first compound 8 µM): 0.268

PC-14
relative viability ([1]; first compound 0.08 µM): 0.592
relative viability ([1]; first compound 0.253 µM): 0.585
relative viability ([1]; first compound 0.8 µM): 0.483
relative viability ([1]; first compound 2.53 µM): 0.531
relative viability ([1]; first compound 8 µM): 0.54
relative viability ([2]; first compound 0.253 µM): 0.302
relative viability ([2]; first compound 0.8 µM): 0.233
relative viability ([2]; first compound 2.53 µM): 0.353
relative viability ([2]; first compound 8 µM): 0.298
relative viability ([3]; first compound 0.253 µM): 0.969
relative viability ([3]; first compound 0.8 µM): 0.875
relative viability ([3]; first compound 2.53 µM): 0.789
relative viability ([3]; first compound 8 µM): 0.603
relative viability ([4]; first compound 0.253 µM): 0.618
relative viability ([4]; first compound 0.8 µM): 0.799
relative viability ([4]; first compound 2.53 µM): 0.654
relative viability ([4]; first compound 8 µM): 0.476

LCLC-103H
relative viability ([1]; first compound 0.08 µM): 0.505
relative viability ([1]; first compound 0.253 µM): 0.424
relative viability ([1]; first compound 0.8 µM): 0.389
relative viability ([1]; first compound 2.53 µM): 0.458
relative viability ([1]; first compound 8 µM): 0.362
relative viability ([2]; first compound 0.08 µM): 0.774
relative viability ([2]; first compound 0.253 µM): 0.753
relative viability ([2]; first compound 0.8 µM): 0.786
relative viability ([2]; first compound 2.53 µM): 0.837
relative viability ([2]; first compound 8 µM): 0.758
relative viability ([3]; first compound 0.08 µM): 0.922
relative viability ([3]; first compound 0.253 µM): 1.17
relative viability ([3]; first compound 0.8 µM): 1.04
relative viability ([3]; first compound 2.53 µM): 1.15
relative viability ([3]; first compound 8 µM): 0.951
relative viability ([4]; first compound 0.08 µM): 0.58
relative viability ([4]; first compound 0.253 µM): 0.597
relative viability ([4]; first compound 0.8 µM): 0.592
relative viability ([4]; first compound 2.53 µM): 0.524
relative viability ([4]; first compound 8 µM): 0.597
